Data reported in the supplement of paper PMC10307832.

Key:
Assay in all cases: relative viability (nuclei count vs DMSO), 5 days (fraction); higher = more cells survive
[1] = compound: CCn1c(-c2nonc2N)nc2cnc(Oc3cccc(NC(=O)c4ccc(OCCN5CCOCC5)cc4)c3)cc21 + COc1cccc2cc(-c3nc([C@H]4CC[C@H](C(=O)O)CC4)n4ncnc(N)c34)[nH]c12 [OSI-027] (partner 0.5 µM)
In short: (§1)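 A single step with final 0.05% Triton X-100, 1% formaldehyde and 1 ug/ml Hoechst fixed the cells and stained nuclei 5 days after treatment. Lung cancer cell lines in 1536-well plates had been treated by pin tool the day after seeding with one drug alone or a fixed anchor-drug dose plus five library-drug doses (not always all listed) in √10 steps, and nuclei were counted on 4× images. Relative viability is the ratio of nuclei in treated wells to nuclei in vehicle wells, taken as the median of duplicate plates.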

[2] = compound: CCn1c(-c2nonc2N)nc2cnc(Oc3cccc(NC(=O)c4ccc(OCCN5CCOCC5)cc4)c3)cc21 + NC(=O)Nc1cc(-c2cccc(F)c2)sc1C(=O)N[C@H]1CCCNC1 [AZD7762] (partner 0.2 µM)
In short: as §1

[3] = compound: CCC1=CN=CN=C1N2CCN(CC2)CC3=NC4=C(N3)C=C(C=C4)C(F)(F)F + Cc1nc(Nc2ncc(C(=O)Nc3c(C)cccc3Cl)s2)cc(N2CCN(CCO)CC2)n1 [Dasatinib] (partner 0.075 µM)
In short: as §1

[4] = compound: CCC1=CN=CN=C1N2CCN(CC2)CC3=NC4=C(N3)C=C(C=C4)C(F)(F)F + CC(=O)c1c(C)c2cnc(Nc3ccc(N4CCNCC4)cn3)nc2n(C2CCCC2)c1=O [Palbociclib] (partner 0.5 µM)
In short: as §1

| Cell Line | relative viability ([1]; first compound 0.04 µM) | relative viability ([1]; first compound 0.1265 µM) | relative viability ([1]; first compound 0.4 µM) | relative viability ([1]; first compound 1.265 µM) | relative viability ([1]; first compound 4 µM) | relative viability ([2]; first compound 0.04 µM) | relative viability ([2]; first compound 0.1265 µM) | relative viability ([2]; first compound 0.4 µM) | relative viability ([2]; first compound 1.265 µM) | relative viability ([2]; first compound 4 µM) | relative viability ([3]; first compound 0.04 µM) | relative viability ([3]; first compound 0.1265 µM) | relative viability ([3]; first compound 0.4 µM) | relative viability ([3]; first compound 1.265 µM) | relative viability ([3]; first compound 4 µM) | relative viability ([4]; first compound 0.04 µM) | relative viability ([4]; first compound 0.1265 µM) | relative viability ([4]; first compound 0.4 µM) | relative viability ([4]; first compound 1.265 µM) | relative viability ([4]; first compound 4 µM) |
| --- | --- | --- | --- | --- | --- | --- | --- | --- | --- | --- | --- | --- | --- | --- | --- | --- | --- | --- | --- | --- |
| NCI-H522 | 0.742 | 0.818 | 0.642 | 0.55 | 0.587 | 0.697 | 0.821 | 0.549 | 0.689 | 0.474 | 0.849 | 0.819 | 0.88 | 0.866 | 0.923 | 1.02 | 1.11 | 0.956 | 0.818 | 0.916 |
| NCI-H647 | 0.591 | 0.393 | 0.323 | 0.34 | 0.278 | 0.523 | 0.242 | 0.249 | 0.193 | 0.121 | 0.166 | 0.174 | 0.186 | 0.223 | 0.201 | 0.518 | 0.345 | 0.346 | 0.292 | 0.374 |
| NCI-H650 | 0.601 | 0.39 | 0.254 | 0.238 | 0.265 | 1.15 | 0.871 | 0.46 | 0.263 | 0.354 | 0.4 | 0.413 | 0.456 | 0.441 | 0.494 | 0.318 | 0.344 | 0.292 | 0.276 | 0.313 |
| NCI-H727 | 1.01 | 0.924 | 0.441 | 0.612 | 0.818 | – | 0.699 | 0.539 | 0.566 | 0.739 | 0.407 | 0.38 | 0.364 | – | 0.314 | 0.688 | 0.644 | 0.526 | 0.576 | 0.661 |
| NCI-H838 | 0.338 | 0.294 | 0.228 | 0.242 | 0.194 | 0.946 | 0.725 | 0.669 | 0.635 | 0.691 | 0.295 | 0.237 | 0.28 | 0.26 | 0.289 | 0.231 | 0.22 | 0.215 | 0.178 | 0.218 |
| NCI-H1355 | 0.477 | 0.385 | 0.197 | 0.306 | 0.312 | 0.676 | 0.684 | 0.369 | 0.313 | 0.217 | 0.761 | 0.631 | 0.621 | 0.657 | 0.735 | 0.412 | 0.387 | 0.407 | 0.373 | 0.368 |
| NCI-H1395 | 0.785 | 0.512 | 0.525 | 0.351 | 0.384 | 0.356 | 0.36 | 0.359 | 0.352 | 0.333 | 0.441 | 0.405 | 0.371 | 0.442 | 0.384 | 0.598 | 0.596 | 0.637 | – | 0.665 |
| NCI-H1437 | 0.946 | 0.742 | 0.553 | 0.74 | 0.662 | 1.13 | 1.08 | 0.718 | 0.625 | 0.642 | 0.339 | 0.369 | 0.386 | 0.328 | 0.22 | 0.324 | 0.309 | 0.263 | 0.303 | 0.269 |
